The record followed here is patent US10392391B2 (Vertex Pharmaceuticals Incorporated, priority 2012, dated 2019).

In the first assay the target is ATR kinase (full-length ATR) (Homo sapiens (Human), UniProt Q13535). Kind of assay: ATR inhibition assay (radioactive-phosphate incorporation). It is filed as biochemical.
Chain of ATR kinase (full-length ATR) (Q13535 whole entry): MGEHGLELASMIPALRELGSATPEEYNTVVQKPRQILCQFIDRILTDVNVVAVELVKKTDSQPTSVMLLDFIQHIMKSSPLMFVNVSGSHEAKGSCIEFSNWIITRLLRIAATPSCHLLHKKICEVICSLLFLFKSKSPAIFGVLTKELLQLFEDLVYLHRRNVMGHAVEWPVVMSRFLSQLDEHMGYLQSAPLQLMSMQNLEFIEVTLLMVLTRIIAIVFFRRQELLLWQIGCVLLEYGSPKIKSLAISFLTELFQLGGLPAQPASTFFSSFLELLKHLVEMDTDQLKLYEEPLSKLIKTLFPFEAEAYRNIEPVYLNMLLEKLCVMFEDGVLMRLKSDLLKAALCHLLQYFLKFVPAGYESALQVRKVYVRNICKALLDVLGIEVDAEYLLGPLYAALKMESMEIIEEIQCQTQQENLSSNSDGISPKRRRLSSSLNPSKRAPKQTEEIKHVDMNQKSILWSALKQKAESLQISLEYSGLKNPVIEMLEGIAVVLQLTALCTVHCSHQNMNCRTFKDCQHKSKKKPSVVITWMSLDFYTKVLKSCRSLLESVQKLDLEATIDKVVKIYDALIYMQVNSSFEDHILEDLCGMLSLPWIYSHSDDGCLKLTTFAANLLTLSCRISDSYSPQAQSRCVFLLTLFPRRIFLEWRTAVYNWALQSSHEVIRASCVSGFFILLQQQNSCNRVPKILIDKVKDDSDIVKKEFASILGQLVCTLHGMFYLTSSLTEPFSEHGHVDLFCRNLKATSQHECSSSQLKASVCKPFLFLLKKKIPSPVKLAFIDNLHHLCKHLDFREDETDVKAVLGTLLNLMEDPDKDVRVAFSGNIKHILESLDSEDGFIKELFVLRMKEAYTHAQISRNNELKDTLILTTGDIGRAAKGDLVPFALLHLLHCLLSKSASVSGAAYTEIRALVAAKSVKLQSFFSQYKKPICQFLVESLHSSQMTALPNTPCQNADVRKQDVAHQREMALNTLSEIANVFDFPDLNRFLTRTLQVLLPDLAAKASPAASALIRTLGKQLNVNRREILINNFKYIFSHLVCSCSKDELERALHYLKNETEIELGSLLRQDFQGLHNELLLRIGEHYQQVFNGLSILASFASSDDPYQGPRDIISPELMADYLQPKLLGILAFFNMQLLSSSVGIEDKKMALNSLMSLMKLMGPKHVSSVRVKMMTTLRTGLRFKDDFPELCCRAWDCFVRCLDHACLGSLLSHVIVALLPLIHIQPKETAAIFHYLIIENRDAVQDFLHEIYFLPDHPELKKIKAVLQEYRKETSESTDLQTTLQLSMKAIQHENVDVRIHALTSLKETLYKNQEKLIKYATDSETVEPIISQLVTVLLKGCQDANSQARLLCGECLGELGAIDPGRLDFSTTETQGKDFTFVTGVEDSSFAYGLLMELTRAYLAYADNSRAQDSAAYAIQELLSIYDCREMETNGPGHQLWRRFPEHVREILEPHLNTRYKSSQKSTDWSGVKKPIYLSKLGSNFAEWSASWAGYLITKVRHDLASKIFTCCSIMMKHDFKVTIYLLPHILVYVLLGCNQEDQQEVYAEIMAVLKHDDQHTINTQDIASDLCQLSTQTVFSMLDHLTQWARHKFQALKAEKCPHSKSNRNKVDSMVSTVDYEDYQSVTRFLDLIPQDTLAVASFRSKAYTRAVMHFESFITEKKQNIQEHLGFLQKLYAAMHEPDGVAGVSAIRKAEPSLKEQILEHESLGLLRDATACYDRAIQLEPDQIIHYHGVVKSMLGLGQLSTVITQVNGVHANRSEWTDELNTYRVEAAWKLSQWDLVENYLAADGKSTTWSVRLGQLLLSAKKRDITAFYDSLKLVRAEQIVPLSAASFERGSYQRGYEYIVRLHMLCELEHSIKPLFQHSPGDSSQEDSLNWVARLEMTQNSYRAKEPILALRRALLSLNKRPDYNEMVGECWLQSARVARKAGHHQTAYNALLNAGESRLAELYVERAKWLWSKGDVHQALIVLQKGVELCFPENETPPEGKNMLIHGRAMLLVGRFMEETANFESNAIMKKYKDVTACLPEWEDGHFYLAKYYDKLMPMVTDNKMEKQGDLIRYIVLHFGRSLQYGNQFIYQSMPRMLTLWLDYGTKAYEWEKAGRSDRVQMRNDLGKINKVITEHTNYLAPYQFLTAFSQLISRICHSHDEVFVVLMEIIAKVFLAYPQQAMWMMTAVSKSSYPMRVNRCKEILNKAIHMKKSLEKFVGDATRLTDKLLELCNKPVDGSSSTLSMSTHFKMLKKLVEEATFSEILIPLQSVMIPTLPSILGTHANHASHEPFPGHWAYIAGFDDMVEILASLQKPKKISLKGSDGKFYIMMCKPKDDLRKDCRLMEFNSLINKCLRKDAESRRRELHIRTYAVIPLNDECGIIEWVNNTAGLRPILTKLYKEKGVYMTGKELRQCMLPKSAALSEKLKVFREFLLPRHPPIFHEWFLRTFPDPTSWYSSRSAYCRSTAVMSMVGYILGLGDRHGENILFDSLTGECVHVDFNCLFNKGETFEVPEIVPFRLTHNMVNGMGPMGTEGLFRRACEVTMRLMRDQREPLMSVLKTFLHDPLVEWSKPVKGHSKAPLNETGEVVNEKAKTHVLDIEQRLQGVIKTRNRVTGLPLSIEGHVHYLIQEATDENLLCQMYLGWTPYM
Conditions: not given
Here is the method: Compounds were screened for their ability to inhibit ATR kinase using a radioactive-phosphate incorporation assay. Assays were carried out in a mixture of 50 mM Tris/HCl (pH 7.5), 10 mM MgCl2 and 1 mM DTT. Final substrate concentrations were 10 μM [γ-33P]ATP (3mCi 33P ATP/mmol ATP, Perkin Elmer) and 800 μM target peptide ([…]) (SEQ ID NO:1).
Assays were carried out at 25° C. in the presence of 5 nM full-length ATR. An assay stock buffer solution was prepared containing all of the reagents listed above, with the exception of ATP and the test compound of interest. 13.5 μL of the stock solution was placed in a 96 well plate followed by addition of 2 μL of DMSO stock containing serial dilutions of the test compound (typically starting from a final concentration of 15 μM with 3-fold serial dilutions) in duplicate (final DMSO concentration 7%). The plate was pre-incubated for 10 minutes at 25° C. and the reaction initiated by addition of 15 μL [γ-33P]ATP (final concentration 10 μM).
The reaction was stopped after […] by the addition of 30 μL 0.1M phosphoric acid containing 2 mM ATP. A multiscreen phosphocellulose filter 96-well plate (Millipore, Cat no. MAPHN0B50) was pretreated with 100 μL 0.2M phosphoric acid prior to the addition of […] of the stopped assay mixture. The plate was washed with 5×200 μL 0.2M phosphoric acid. After drying, 100 μL Optiphase ‘SuperMix’ liquid scintillation cocktail (Perkin Elmer) was added to the well prior to scintillation counting (1450 Microbeta Liquid Scintillation Counter, Wallac).
After removing mean background values for all of the data points, Ki(app) data were calculated from non-linear regression analysis of the initial rate data using the Prism software package (GraphPad Prism version 3.0cx for Macintosh, GraphPad Software, San Diego Calif., USA).
With `CN1CCN(c2cc(Cl)ncc2NC(=O)c2c(N)nn3cc(Cl)cnc23)CC1` [I-N-52, 2-amino-6-chloro-N-(6-chloro-4-(4-methylpiperazin-1-yl)pyridin-3-yl)pyrazolo[1,5-a]pyrimidine-3-carboxamide], the Ki was in the range of 1000 to 5000 nM.

In the case of `CN1CCC(Oc2c(Cl)cncc2NC(=O)c2c(N)nn3cc(Cl)cnc23)CC1` [I-O-46, 2-amino-6-chloro-N-(5-chloro-4-((1-methylpiperidin-4-yl)oxy)pyridin-3-yl)pyrazolo[1,5-a]pyrimidine-3-carboxamide], the Ki lay within 1000 to 5000 nM.

The same assay, now with this note: Ki(app), 5 nM full-length ATR, 10 μM ATP, 25° C.
Turning to `Nc1nn2cc(F)cnc2c1C(=O)Nc1cncc(F)c1N1CCC(C(=O)N2CC(N3CCC3)C2)CC1` [I-G-49, N-(4-(4-([1,3′-biazetidine]-1′-carbonyl)piperidin-1-yl)-5-fluoropyridin-3-yl)-2-amino-6-fluoropyrazolo[1,5-a]pyrimidine-3-carboxamide], the Ki lay in the range of 10 to 1000 nM.

With `Nc1nn2cc(F)cnc2c1C(=O)Nc1cncc(F)c1N1CCN(S(=O)(=O)C2CC2)CC1` [I-N-159, 2-amino-N-(4-(4-(cyclopropylsulfonyl)piperazin-1-yl)-5-fluoropyridin-3-yl)-6-fluoropyrazolo[1,5-a]pyrimidine-3-carboxamide], the Ki lay within 10 to 1000 nM.

For the compound `Nc1nn2cc(Cl)cnc2c1C(=O)Nc1cnccc1N1CCC(N)CC1` [I-N-86, 2-amino-N-(4-(4-aminopiperidin-1-yl)pyridin-3-yl)-6-chloropyrazolo[1,5-a]pyrimidine-3-carboxamide], the Ki lay in the range of 10 to 1000 nM.

In the case of `COc1cncc(NC(=O)c2c(N)nn3cc(F)cnc23)c1C1CC1` [I-C-84, 2-amino-N-(4-cyclopropyl-5-methoxypyridin-3-yl)-6-fluoropyrazolo[1,5-a]pyrimidine-3-carboxamide], the Ki was 10 to 1000 nM.

With `CN1CCOC(C(=O)N2CCN(c3c(F)cncc3NC(=O)c3c(N)nn4cc(F)cnc34)CC2)C1` (stereo not shown) [I-N-174, 2-amino-6-fluoro-N-(5-fluoro-4-(4-(4-methylmorpholine-2-carbonyl)piperazin-1-yl)pyridin-3-yl)pyrazolo[1,5-a]pyrimidine-3-carboxamide], the Ki lay within 10 to 1000 nM.

Consider `Nc1nn2cc(Cl)cnc2c1C(=O)Nc1cncc(F)c1N1CCC(C(=O)N2CCN3CCC2CC3)CC1` [I-G-87, N-(4-(4-(1,4-diazabicyclo[3.2.2]nonane-4-carbonyl)piperidin-1-yl)-5-fluoropyridin-3-yl)-2-amino-6-chloropyrazolo[1,5-a]pyrimidine-3-carboxamide], for which the Ki lay within 10 to 1000 nM.

Take `CN1CCC(S(=O)(=O)N2CCN(c3ccncc3NC(=O)c3c(N)nn4cc(F)cnc34)CC2)CC1` [I-N-188, 2-amino-6-fluoro-N-(4-(4-((1-methylpiperidin-4-yl)sulfonyl)piperazin-1-yl)pyridin-3-yl)pyrazolo[1,5-a]pyrimidine-3-carboxamide]: the Ki lay in the range of 10 to 1000 nM.

Take `Nc1nn2cc(Cl)cnc2c1C(=O)Nc1cnccc1O[C@H]1CCCNC1` [I-O-74, (S)-2-amino-6-chloro-N-(4-(piperidin-3-yloxy)pyridin-3-yl)pyrazolo[1,5-a]pyrimidine-3-carboxamide]: the Ki was in the range of 10 to 1000 nM.

With `CN(C)CCCNC(=O)C1CCN(c2c(F)cncc2NC(=O)c2c(N)nn3cc(F)cnc23)CC1` [I-G-26, 2-amino-N-(4-(4-((3-(dimethylamino)propyl)carbamoyl)piperidin-1-yl)-5-fluoropyridin-3-yl)-6-fluoropyrazolo[1,5-a]pyrimidine-3-carboxamide], the Ki lay in the range of 10 to 1000 nM.

For `Cc1ccncc1NC(=O)c1c(N)nn2cc(F)cnc12` [I-C-4, 2-amino-6-fluoro-N-(4-methylpyridin-3-yl)pyrazolo[1,5-a]pyrimidine-3-carboxamide], the Ki was in the range of 10 to 1000 nM.

As to `Nc1nn2cc(F)cnc2c1C(=O)Nc1cnccc1N1CCN2C(=O)COCC2C1` (stereo not shown) [I-N-136, 2-amino-6-fluoro-N-(4-(4-oxohexahydropyrazino[2,1-c][1,4]oxazin-8(1H)-yl)pyridin-3-yl)pyrazolo[1,5-a]pyrimidine-3-carboxamide], the Ki was 10 to 1000 nM.

As to `Nc1nn2cc(F)cnc2c1C(=O)Nc1cncc(F)c1N1CCN(C2CCOCC2)CC1` [I-N-121, 2-amino-6-fluoro-N-(5-fluoro-4-(4-(tetrahydro-2H-pyran-4-yl)piperazin-1-yl)pyridin-3-yl)pyrazolo[1,5-a]pyrimidine-3-carboxamide], the Ki lay in the range of 10 to 1000 nM.

For the compound `CN1CCN(c2ccncc2NC(=O)c2c(N)nn3cc(Cl)cnc23)CC1(C)C` [I-N-53, 2-amino-6-chloro-N-(4-(3,3,4-trimethylpiperazin-1-yl)pyridin-3-yl)pyrazolo[1,5-a]pyrimidine-3-carboxamide], the Ki lay within 10 to 1000 nM.

As for `Cc1ccc(-c2ccncc2NC(=O)c2c(N)nn3cc(F)cnc23)cn1` [I-C-22, 2-amino-6-fluoro-N-(6-methyl-[3,4′-bipyridin]-3′-yl)pyrazolo[1,5-a]pyrimidine-3-carboxamide], the Ki lay in the range of 10 to 1000 nM.

As to `Nc1nn2cc(F)cnc2c1C(=O)Nc1cncc(F)c1N1CCN2C(=O)OC[C@@H]2C1` [I-N-248, (S)-2-amino-6-fluoro-N-(5-fluoro-4-(3-oxotetrahydro-1H-oxazolo[3,4-a]pyrazin-7(3H)-yl)pyridin-3-yl)pyrazolo[1,5-a]pyrimidine-3-carboxamide], the Ki was 10 to 1000 nM.

Regarding `COCCN(C)C(=O)C1CCN(c2c(F)cncc2NC(=O)c2c(N)nn3cc(F)cnc23)CC1` [I-G-40, 2-amino-6-fluoro-N-(5-fluoro-4-(4-((2-methoxyethyl)(methyl)carbamoyl)piperidin-1-yl)pyridin-3-yl)pyrazolo[1,5-a]pyrimidine-3-carboxamide], the Ki lay in the range of 10 to 1000 nM.

Turning to `CN1CCN(c2c(F)cncc2NC(=O)c2c(N)nn3cc(Cl)cnc23)CC1` [I-N-14, 2-amino-6-chloro-N-(5-fluoro-4-(4-methylpiperazin-1-yl)pyridin-3-yl)pyrazolo[1,5-a]pyrimidine-3-carboxamide], the Ki lay in the range of 10 to 1000 nM.

As for `Nc1nn2cc(F)cnc2c1C(=O)Nc1cnccc1-n1ccnc1C(F)(F)F` [I-N-219, 2-amino-6-fluoro-N-(4-(2-(trifluoromethyl)-1H-imidazol-1-yl)pyridin-3-yl)pyrazolo[1,5-a]pyrimidine-3-carboxamide], the Ki lay within 10 to 1000 nM.

`Nc1nn2cc(F)cnc2c1C(=O)Nc1cnccc1C1CCN(C(=O)C2CC2)CC1` [I-C-70, 2-amino-N-(4-(1-(cyclopropanecarbonyl)piperidin-4-yl)pyridin-3-yl)-6-fluoropyrazolo[1,5-a]pyrimidine-3-carboxamide]: the Ki was in the range of 10 to 1000 nM.

On to `COCC1CN(c2ccncc2NC(=O)c2c(N)nn3cc(Cl)cnc23)CCN1C` (stereo not shown) [I-N-47, 2-amino-6-chloro-N-(4-(3-(methoxymethyl)-4-methylpiperazin-1-yl)pyridin-3-yl)pyrazolo[1,5-a]pyrimidine-3-carboxamide], for which the Ki is 10 to 1000 nM.

With `COc1cncc(NC(=O)c2c(N)nn3cc(F)cnc23)c1-c1cccnc1` [I-C-82, 2-amino-6-fluoro-N-(5′-methoxy-[3,4′-bipyridin]-3′-yl)pyrazolo[1,5-a]pyrimidine-3-carboxamide], the Ki is 10 to 1000 nM.

Regarding `CN1CC2(CCC1=O)CCN(c1ccncc1NC(=O)c1c(N)nn3cc(F)cnc13)CC2` [I-N-231, 2-amino-6-fluoro-N-(4-(2-methyl-3-oxo-2,9-diazaspiro[5.5]undecan-9-yl)pyridin-3-yl)pyrazolo[1,5-a]pyrimidine-3-carboxamide], the Ki lay in the range of 10 to 1000 nM.

Regarding `Nc1nn2cc(F)cnc2c1C(=O)Nc1cncc(F)c1N1CCC(C(=O)N2CC3CCC(C2)N3)CC1` [I-G-44, N-(4-(4-(3,8-diazabicyclo[3.2.1]octane-3-carbonyl)piperidin-1-yl)-5-fluoropyridin-3-yl)-2-amino-6-fluoropyrazolo[1,5-a]pyrimidine-3-carboxamide], the Ki is 10 to 1000 nM.

For `CN1CCN2CCN(c3ccncc3NC(=O)c3c(N)nn4cc(F)cnc34)CC2C1=O` (stereo not shown) [I-N-233, 2-amino-6-fluoro-N-(4-(8-methyl-9-oxohexahydro-1H-pyrazino[1,2-a]pyrazin-2(6H)-yl)pyridin-3-yl)pyrazolo[1,5-a]pyrimidine-3-carboxamide], the Ki was in the range of 10 to 1000 nM.

Regarding `CS(=O)(=O)C1CN(C(=O)C2CCN(c3c(F)cncc3NC(=O)c3c(N)nn4cc(F)cnc34)CC2)C1` [I-G-86, 2-amino-6-fluoro-N-(5-fluoro-4-(4-(3-(methylsulfonyl)azetidine-1-carbonyl)piperidin-1-yl)pyridin-3-yl)pyrazolo[1,5-a]pyrimidine-3-carboxamide], the Ki was 10 to 1000 nM.

With `CN1C[C@@H]2CCN(c3ccncc3NC(=O)c3c(N)nn4cc(F)cnc34)C[C@@H]2C1=O` [I-N-224, 2-amino-6-fluoro-N-(4-((3aR,7aR)-2-methyl-3-oxohexahydro-1H-pyrrolo[3,4-c]pyridin-5(6H)-yl)pyridin-3-yl)pyrazolo[1,5-a]pyrimidine-3-carboxamide], the Ki lay within 10 to 1000 nM.
